Results reported in patent US20260209260A1, “VECTORIZED NHC IRIDIUM(III) COMPLEXES AND USE THEREOF IN PHOTODYNAMIC THERAPY AND/OR DIAGNOSTIC” (CENTRE NATIONAL DE LA RECHERCHE SCIENTIFIQUE, priority 2022, published 2026).
Several values for one entry are separate records, joined by “and”; a condition that tells them apart may be missing. Identical values can stand only once. Like-named read-outs stand apart in the source and are kept apart here.

What was measured:
[1] = Lipophilicity: octanol-water partition coefficient, shake-flask method
Experimental: The octanol-water partition coefficients (P) of all the complexes were determined using a shake-flask method^8. Water (100 mL, distilled after milli-Q purification) and n-octanol (100 mL, Sigma Aldrich, ACS spectrophotometric grade, ≥99%) were shaken together for 24 h to allow saturation of both phases. Stock solutions of the compounds ([…]) were prepared in the aqueous phase. Aliquots (2 mL) of each of these stock solutions were then added to an equal volume of the n-octanol phase. The resultant biphasic solution was mixed for 15 min and then centrifuged (3000 tr/min, 5 min) to separate the phases. The concentrations of the complex in the organic and aqueous phases were then determined using UV absorbance spectroscopy (260 nm). The blank is the water saturated with n-octanol. Log P was defined as logarithm of the ratio of the concentrations of the complex in the organic and aqueous phases (values reported are the means of at least three separated determinations).
The Log P values have been determined by a classical shake-flask method.

[2] = UV/Vis absorption spectra; assay type: physicochemical; details: room temperature; for maximum absorption, lowest-lying bands in the visible region over 360 nm: CH2Cl2 or CH2Cl2/MeOH (1:1); for λmax (nm) ε (M^−1 · cm^−1): air-saturated CH2Cl2 or CH2Cl2/MeOH (1:1), 50 μM, ε in brackets, sh = shoulder
Experimental: UV/Vis absorption spectra were recorded at RT on solutions contained in quartz cuvettes (optical pathlength 1 cm, Hellma®) with a PerkinElmer® UV/VIS/NIR spectrophotometer Lambda 950 and a PerkinElmer® detector UV/VIS/NIR Accessory 2D Detector Module.

[3] = Luminescence emission spectra and quantum yield; assay type: physicochemical; details: for ΦP emission phosphorescence quantum yield: room temperature, reference POPOP in hexane or rhodamine B in ethanol; for λem: CH2Cl2, room temperature, λexc 365 nm or 470 nm
Experimental: Fluorescence and phosphorescence emission spectra were obtained with a HORIBA JOBIN YVON, fluromax-4 and spectrofluorometer.
Luminescence quantum yields were measured according to the method of Demas and Crosby, on solution samples at RT. The quantum yield is defined as: […]
Where ΦP is the quantum yield of the sample, ΦR is the know quantum yield of the reference standard. […].
The luminescence spectra of vectorized iridium(III) complexes were determined in CH2Cl2 at room temperature (Table 3).

[4] = Emission lifetime measurement; assay type: physicochemical
Experimental: Fluorescence lifetime measurements were performed by an Edinburgh FLS920 spectrofluorimeter equipped with a TCC900 card for data acquisition in time-correlated single-photon counting experiments (0.5 ns time resolution) with a D2 lamp and an LDH—P-C-405 pulsed diode laser. The estimated experimental error is 2 nm on the band maximum (5% on the lifetime, 10% on the fluorescence quantum yield).
The emission lifetimes of biotin-vectorized complexes (I-a) to (I-l) range from 138 ns to 411 ns, among them, the lifetime of biotin-vectorized complexes (I-c), (I-e), (I-k) are 411, 224, and 322 ns respectively. The emission lifetimes of FTS-vectorized complexes (II-a) to (II-l) range from 167 ns to 486 ns, among them, the lifetime of FTS-vectorized complexes (II-c) and (II-k) are 319 and 486 ns respectively. The emission lifetimes of PSMA-vectorized complexes (III-a) to (III-l) are in the range of 159-649 ns, among them, the lifetime of complexes (III-a) and (III-k) were 248 and 649 ns, respectively. The emission lifetimes of Fc-vectorized complexes (IV-a) to (IV-l) are in the range of 178-228 ns.

[5] = system: NIH-3T3 fibroblast cells (non-tumor); assay: Cell viability assay (MTT), dark and blue light; assay type: cell-based, Murine; details: for Photosensitizing index (PI): NIH-3T3, dark vs blue light
Experimental: (§1) Cells were grown in humidified incubators at 37° C. in 5% CO2. Murine MC3T3 osteoblast and NIH-3T3 fibroblast cells-used as non-tumor cell models-were cultured in a-MEM medium and DMEM medium supplemented with 10% fetal bovine serum (FBS) and 1% Penicillin/Streptomycin (P/S) antibiotics, respectively. Human T24 bladder, MGHU3 bladder, Scaber bladder, A549 lung, MCF7 breast, MiaPaCa2 pancreas cancer cells were cultured in DMEM medium supplemented with 10% FBS and 1% P/S antibiotics. […] Human Hela cervix and HepG2 liver cancer cells were cultured EMEM medium supplemented with 10% FBS and 1% P/S antibiotics.
(§2) MTT reagent (3-(4,5-dimethylthiazol-2-yl)-2,5-diphenyltetrazolium bromide) was used to determine cell death as originally described by Mosmann. Briefly, cells were seeded from 5,000 to 10,000 cells/well in 24-well plates (1 mL) depending on the cell type and allowed to attach overnight. The complexes were prepared in DMSO. The concentration of the complexes was calculated based on the elemental composition of the complexes determined by the elemental analyses. All cell viability experiments were carried out with a fixed concentration of 0.1% (v/v) DMSO. After 72 h of treatment, cells were incubated at 37° C. and 5% CO2 with 25 μL of MTT solution (5 mg/ml; Sigma-Aldrich) in 24-well plates for 3 to 4 h. After solubilization with 500 μL of DMSO, formazan was quantified spectrophotometrically with a microplate reader at 570 nm absorbance (ClarioSTAR, BMG LabTech). […] All the results were calculated from data obtained in at least three independent experiments performed in triplicate.
(§3) Two sets of experiments were conducted in parallel for each complex to be studied:
(§4) 1. The cells were incubated with the different complexes (in the dark) for 72 h.
(§5) 2. The cells were incubated for 8 h with the different complexes (in the dark), then irradiated for 10 min, followed by an incubation in the dark up to 72 h.

[6] = system: T24 bladder cancer cells; assay: Cell viability assay (MTT), dark and blue light; assay type: cell-based, Human; details: for Photosensitizing index (PI) T24: dark vs blue light 458 nm; for SI (vs NIH-3T3) T24 Blue: blue light 458 nm
Experimental: as §1, §2, §3, §4, §5

[7] = system: PC-3 prostate cancer cells (PSMA-negative); assay: Cell viability assay (MTT), dark and blue light; assay type: cell-based, Human; details: for GI50: read-out: GI50; for Photosensitizing index (PI): PC3, dark vs blue light
Experimental: Cells were grown in humidified incubators at 37° C. in 5% CO2. Murine MC3T3 osteoblast and NIH-3T3 fibroblast cells-used as non-tumor cell models-were cultured in a-MEM medium and DMEM medium supplemented with 10% fetal bovine serum (FBS) and 1% Penicillin/Streptomycin (P/S) antibiotics, respectively. Human T24 bladder, MGHU3 bladder, Scaber bladder, A549 lung, MCF7 breast, MiaPaCa2 pancreas cancer cells were cultured in DMEM medium supplemented with 10% FBS and 1% P/S antibiotics. Human ASPC-1 pancreas, PC-3 prostate, DU-145 prostate, C4-2B prostate and 22rV1 prostate cancer cells were cultured in RPMI medium supplemented with 10% FBS and 1% P/S antibiotics. Human Hela cervix and HepG2 liver cancer cells were cultured EMEM medium supplemented with 10% FBS and 1% P/S antibiotics.
as §2
Irradiation was conducted using an in-house device, a series of blue light LEDs selected according to the absorption spectra of the compounds at 458 nm wavelength with an emitted power of 9.6 Watts. The light fluence was measured at 458 nm with an optical power meter Thorlabs PM100A at different distances between the cell layer and the light source (5 and 10 cm).
as §3, §4, §5

[8] = n-octanol/water, shake-flask, mean of at least three determinations
[9] = 8 h in the dark, blue light 458 nm 10 min, then dark up to 72 h, read-out: GI50 NIH-3T3 Blue
[10] = in the dark, 72 h, read-out: GI50 NIH-3T3 Dark
[11] = 8 h in the dark, blue light 458 nm 10 min, then dark up to 72 h, read-out: GI50 T24 Blue
[12] = in the dark, 72 h, read-out: GI50 T24 Dark

SMILES	Log P [1, 8]	maximum absorption, lowest-lying bands in the visible region over 360 nm [2]	λmax (nm) ε (M^−1 · cm^−1) [2]	ΦP emission phosphorescence quantum yield [3] [%]	τ1 emission lifetime [4] [ns]	GI50 [5, 9] [µM]	GI50 [5, 10] [µM]	GI50 [6, 11]	SI (vs NIH-3T3) T24 Dark [6]	GI50 [6, 12]	SI (vs NIH-3T3) T24 Blue [6]	Photosensitizing index (PI) T24 [6]	Log P [1]	λem [3] [nm]	Photosensitizing index (PI) [5]	GI50 ([5]; NIH-3T3, dark, read-out: GI50) [µM]	Photosensitizing index (PI) [7]	GI50 ([7]; PC3, dark) [nM]	SI (vs NIH-3T3) ([7]; PC3, dark)	further results
Cc1ccc2[c](c1)[Ir-3]13([c]4cc(C)ccc4-c4cccc[n+]41)([c]1n(CCCNC(=O)CCCC[C@@H]4SC[C@@H]5NC(=O)N[C@@H]54)cc[n+]1-c1cccc[n+]13)[n+]1ccccc1-2.F[P-](F)(F)(F)(F)F [I-b]	0.43 ± 0.01	around 380 nm	314 (sh) (18240), 382 (6150) nm (M^−1 · cm^−1)	0.5	177	> 100	> 100	8.3 µM	>7.3	13.7 µM										Photosensitizing index (PI) T24 ([6]; listed as l-b): 1.7
COC(=O)c1ccc2[c](c1)[Ir-3]13([c]4cc(C(=O)OC)ccc4-c4cccc[n+]41)([c]1n(CCCNC(=O)CCCC[C@@H]4SC[C@@H]5NC(=O)N[C@@H]54)cc[n+]1-c1cccc[n+]13)[n+]1ccccc1-2.F[P-](F)(F)(F)(F)F [I-c]	−0.78 ± 0.01		310 (sh) (16860), 358 (4090), 400 (3295) nm (M^−1 · cm^−1)	5.9	411	> 100	> 100	24.9 µM and 24.5 µM	>3.7	26.7 µM and 26.9 µM	>4.1	1.1								
COC(=O)c1cccc2[c]1[Ir-3]13([c]4c(C(=O)OC)cccc4-c4cccc[n+]41)([c]1n(CCCNC(=O)CCCC[C@@H]4SC[C@@H]5NC(=O)N[C@@H]54)cc[n+]1-c1cccc[n+]13)[n+]1ccccc1-2.F[P-](F)(F)(F)(F)F [I-d]	−0.10 ± 0.01	around 370 nm	373 (4260) nm (M^−1 · cm^−1)	0.7	184	> 100	> 100	28.9 µM and 26.9 µM	>3.8	26.3 µM	>3.7	1.0								
COC(=O)c1ccc2[n+](c1)[Ir-3]13([c]4ccccc4-2)([c]2ccccc2-c2ccc(C(=O)OC)c[n+]21)[c]1n(CCCNC(=O)[c-]2cccc2)cc[n+]1-c1cccc[n+]13.F[P-](F)(F)(F)(F)F.[Fe+2].c1cc[cH-]c1 [IV-e]			312 (sh) (27925), 363 (sh) (7290), 434 (6530) nm (M^−1 · cm^−1)	0.17	200								1.37 ± 0.05	528	7.7	32.3	18.3	9900		GI50 ([5]; NIH-3T3, blue light, read-out: GI50): 4.2 µM; GI50 ([7]; PC3, blue light): 540 nM
F[P-](F)(F)(F)(F)F.O=C(NCCCn1cc[n+]2[c]1[Ir-3]13([c]4ccccc4-c4ccc5ccccc5[n+]41)([c]1ccccc1-c1ccc4ccccc4[n+]13)[n+]1ccccc1-2)[c-]1cccc1.[Fe+2].c1cc[cH-]c1 [IV-g]			334 (17135), 436 (4150) nm (M^−1 · cm^−1)	0.02	214								1.42 ± 0.06	579	3.3	11.8	5.8	1500	7.9	SI (vs NIH-3T3) ([7]; PC3, blue light): 13.7
F[P-](F)(F)(F)(F)F.O=C(NCCCn1cc[n+]2[c]1[Ir-3]13([c]4cc(F)cc(F)c4-c4cccc[n+]41)([c]1cc(F)cc(F)c1-c1cccc[n+]13)[n+]1ccccc1-2)[c-]1cccc1.[Fe+2].c1cc[cH-]c1 [IV-l]			305 (sh) (21345), 356 (sh) (8645), 412 (3395) nm (M^−1 · cm^−1)	0.01	191								1.14 ± 0.02		5.4		3.2		4.8	
